Consider 3 molecules from article PMC9542285, “Novel amides of mycophenolic acid and some heterocyclic derivatives as immunosuppressive agents” (Journal of Enzyme Inhibition and Medicinal Chemistry, 2022).

Where two headings read alike, the source gives them in different places.

Data set [1] has as its system PBMCs. As to the kind of experiment: In vitro cytotoxicity assay with XTT dye, PBMCs. In kind it is cell-based, human. Conditions: Homo sapiens, PBMC, 72 h incubation then 24 h XTT, read-out: IC50 PBMCs (XTT test). The procedure:
(§1) Figure 2. Representative dose-response curve to determine the IC50 of MPA and A2. […] Next, plates were incubated for 24 h with XTT reagent. The conversion of water-soluble yellow tetrazolium XTT salt into orange formazan was monitored by measuring the optical density at 450 nm on microplate spectrophotometer. For XTT assay at least three experiments were performed and values are presented as mean ± SD.
(§2) The cytotoxic effect of derivatives of MPA was measured using in vitro 2,3-bis(2-methoxy-4-nitro-5-sulfophenyl)-2H-tetrazolium-5-carboxanilide (XTT)-based assay (Roche, Basel, Swiss). PBMCs suspended in complete X–VIVO20 medium and T-Jurkat cells suspended in complete RPMI-1640 medium were added on a 96-well plate at a concentration of 5 × 10^5 cells/50 µL/well. […] As a background control we used medium without cells, as a positive control we used cells untreated with compounds. After 48 h for T-Jurkat cells and 72 h for PBMCs of incubation in a humidified atmosphere with 5% CO2 at 37 °C, 50 µL of XTT reagent (freshly prepared according to the manufacturer’s procedure) was added to all samples. Plates were incubated for 24 h (5% CO2 at 37 °C). The conversion of water-soluble yellow tetrazolium XTT salt into orange formazan was monitored by measuring the optical density (OD) at 450 nm on Agilent BioTek Epoch Microplate Spectrophotometer (Agilent Technologies, Santa Clara, CA), with a background wavelength at 690 nm. […] Each sample was performed in triplicates.
(Tetrazolium dyes change colour on reduction, which living cells bring about.)

The nature of data set [2]: In vitro cytotoxicity assay with XTT dye, T-Jurkat. In kind it is cell-based, human. The note with it: human, T-Jurkat cell line, […], trypan blue exclusion. The procedure: as §1, §2
The next data set can be described thus: in vitro. Conditions: human.
The next data set has as its system T-Jurkat cell line. As to the kind of experiment: In vitro cytotoxicity assay with XTT dye, T-Jurkat. It counts as cell-based, human. Conditions: Homo sapiens, 48 h incubation then 24 h XTT, read-out: IC50 T-Jurkat (XTT test). The procedure:
as §1, §2

The test system of another data set is T-Jurkat cells. As to the kind of experiment: Dye-based proliferation assay VPD450 (flow cytometry), T-Jurkat. It counts as cell-based, human. Conditions: Homo sapiens, 48 h. The method, then:
(§3) Figure 4. […] Cell proliferation was analysed using flow cytometry.
In general terms: In flow cytometry, cells or beads pass a laser one at a time.

For data set [3], the system named is PBMCs. Nature of the data set: VPD450 proliferation of PBMCs with or without GMP (IMPDH mechanism test). In kind it is cell-based, human. Conditions: PBMCs, 72 h. The method, then: According to reported experiment, suppression of cell proliferation caused by IMPDH inhibitors in the presence of guanosine source, e.g. gunosine monophosphate (GMP) is reversible.
Figure 5. […] Cell proliferation was analysed using flow cytometry.
Cells proliferation was analyzed using flow cytometry.
(1 picture or pasted object on this page, not shown here)

In data set [4] the test system is PBMCs. The note with it: read-out: EC50 PBMCs (VPD450 proliferation); PBMCs stimulated with anti-CD3/anti-CD28 beads, 72 h.
Protocol: (§4) Cell proliferation was analysed using flow cytometry. The results are expressed as the mean ± SD.
(§5) PBMCs and T-Jurkat cells were washed twice with warm PBS (37 °C), suspended in fresh PBS at a final concentration of 10–30 × 10^6 cells/mL and labelled with 1 µL of VPD450 (BD Biosciences, Franklin Lakes, NJ) at 37 °C for 15 min. Each 5 min cells were vortexed to provide uniform staining[42]^,[43]. Subsequently, cells were washed with PBS and then with complete medium (X-VIVO20 for PBMCs and RPMI-1640 for T-Jurkat cells). After this step, cells were suspended in fresh complete medium, seeded on 96-well plates (1 × 10^6 cells/well). PBMCs were additionally stimulated with magnetic beads coated with anti-CD3 and anti-CD28 antibodies (Invitrogen, Carlsbad, CA) in 1:0.5 cell:bead ratio. Of 100 µL of examined derivatives of MPA were added to experimental wells to receive final concentrations: 100; 10; 1; 0.1; 0.01 µM. In parallel, stained and not stimulated cells, as well as stained and stimulated cells, were seeded in the same concentration as controls. After 48 h for T-Jurkat and 72 h for PBMCs, cells were analysed with flow cytometer LSRFortessa (BD Biosciences, Franklin Lakes, NJ) and Kaluza C Flow Cytometry Analysis Software (Beckman Coulter, Brea, CA). […] Cell viability was determined at the highest concentration of the tested compound. For this purpose, TC20 cell counter (Biorad) was used with trypan blue exclusion.
In data set [5] the test system is PBMCs. Nature of the data set: cells. Conditions: Homo sapiens, PBMC, 72 h, read-out: EC50 PBMCs (VPD450 proliferation), PBMCs stimulated with anti-CD3/anti-CD28 beads, 72 h.
Protocol: as §4, §5
The nature of data set [6]: In vitro cytotoxicity assay with XTT dye, PBMCs. Conditions: human, […], trypan blue exclusion. In kind it is cell-based, human. The method, then: as §1, §2
Data set [7] can be described thus: Dye-based proliferation assay VPD450 (flow cytometry), T-Jurkat. It counts as cell-based, human. The note with it: human, VPD450-labelled T-Jurkat cells, […], trypan blue exclusion. The procedure: as §3
A short description of data set [8]: Precipitation / solubility of compounds in culture. In kind it is physicochemical. More on the design: key to Precipitating compound flag (XTT test, PBMCs) / Precipitating compound flag (VPD450 assay, PBMCs): (↓) – precipitating compound. The method, then:
Drug toxicity that affects the cells can cause a variety of serious side effects, including uncontrolled suppression of the immune system. In order to check the cytotoxicity of the tested compounds, the XTT test was performed, the results of which are presented in Table 2. All tested compounds were characterised by lower cytotoxicity than native MPA. Unfortunately, several compounds (marked with ↓) were partially insoluble in culture despite surfactant addition. They were investigated too, but one could not use them as an immunosuppressive drug in their current form. Taking into account the EC50 values obtained in the proliferation tests ([…] staining, Table 3), the compound A2 was selected as the one with the highest immunosuppressive potential and the possibility of its later use in therapy, and is presented in the graphs (Figures 2–4).
To prepare appropriate concentrations of tested compounds, the substances were dissolved in DMSO (Sigma Aldrich, Poland) with 1% addition of Tween20 to obtain final concentration of 0.01 M. The solution was diluted 10-fold and then 5-fold in appropriate medium without additives (RPMI-1640 for T-Jurkat cell line; X-VIVO20 for PBMCs) to obtain the following concentrations: 200; 20; 2; 0.2; 0.02 µM.

The mark [9] stands for this setting: PBMC culture, DMSO with Tween20.

By IC50 is commonly meant the concentration that inhibits the measured activity by half. As a reminder, the viability is a read-out of living cells in per cent, often relative to untreated cells. As to `COc1c(C)c2c(c(O)c1C/C=C(\C)CCC(=O)Nc1nc3ccccc3s1)C(=O)OC2` [A1, N-(benzo[d]thiazol-2-yl) mycophenolate], the IC50 in the data set on PBMCs [1] worked out at 74.57 ± 0.04 µM. The same molecule yielded a viability at 48 h, 100 µM in data set [2] of 68%. The molecule further yielded a viability at 72 h, 100 µM in the data set “in vitro” of 82%.

What is called melting point is the temperature of the solid-liquid transition. Take `COc1c(C)c2c(c(O)c1C/C=C(\C)CCC(=O)Nc1nc3ccccc3o1)C(=O)OC2` [A2, N-(benzo[d]oxazol-2-yl) mycophenolate]: the melting point is 175 to 177 °C. Moreover, the IC50 with PBMCs [1] worked out at 15.923 ± 0.009 µM. Also, the half-maximal inhibitory concentration (IC50) in the data set with T-Jurkat cell line was 1.326 ± 0.002 µM. In the data set with T-Jurkat cells, this molecule showed an EC50 of 0.85 ± 0.004 µM. Moreover, in the data set with PBMCs [3] (50 µM GMP, MPA at 100, 10 and 1 µM, A2 at 100 and 10 µM), the “Effect of GMP addition on proliferation” value is given as “proliferation increases after the addition of GMP”. The “Mechanism of action (IMPDH inhibition, GMP reversal)” value with PBMCs [3] (with or without 50 µM GMP) is given as “consistent with that of MPA”. In addition, the EC50 in the data set on PBMCs [4] amounted to 5.601 ± 0.022 µM. Also, in the data set on PBMCs [5], the EC50 was 5.6 µM.

The molecule `COc1c(C)c2c(c(O)c1C/C=C(\C)CCC(=O)Nc1nc3c(C)cccc3s1)C(=O)OC2` [A17, N-(4-methylbenzo[d]thiazol-2-yl) mycophenolate] had a melting point of 173 to 176 °C. In [6], this molecule had a viability at 72 h, 100 µM of 65%. For the same molecule, the viability at 48 h, 100 µM in data set [2] amounted to 82%. This molecule returned a viability at 48 h, 100 µM in data set [7] of 69%. For the same molecule, in data set [8] (setting [9]), the “Precipitating compound flag (VPD450 assay, PBMCs)” value is “(↓)” and the “Precipitating compound flag (XTT test, PBMCs)” value is reported as “– (↓)”. For the same molecule, in data set [8] (XTT assay conditions), the “Solubility in PBMC culture” value is given as “limited solubility”. Besides, in the data set on PBMCs [5], the EC50 worked out at 82.1 µM.
